From ChEMBL document CHEMBL1151202, “New imidazole alkaloids from the Indonesian sponge Leucetta chagosensis” (J Nat Prod, 2004)
Activity calls are given as the source filed them. The rule behind the calls is not given here.

What was measured:
Cladosporium herbarum = test: Antifungal activity against Cladosporium herbarum DSM 63422 at 20 ug/disk after 24 hrs by agar plate diffusion assay; format: functional
Artemia salina = test: Toxicity in Artemia salina at 20 ug/mL; format: organism-based; details: in vivo
L5178Y = test: Cytotoxicity against mouse L5178Y cells at 10 ug/mL by MTT assay relative to control; format: functional
HeLa = test: Cytotoxicity against human HeLa cells at 10 ug/mL by MTT assay relative to control; format: functional
PC-12 = test: Cytotoxicity against rat PC12 cells by MTT assay; format: functional, cell-based

Compound	Activity (Cladosporium herbarum)	Activity (Artemia salina)	zone of inhibition at 20 µg/disc (Cladosporium herbarum; DSM 63422, 24 h, read-out: IZ)	Activity (L5178Y)	Activity (HeLa)	Activity (PC-12)
COc1ccc(-c2c3cc(O)c(OC)cc3cc3c2[nH]c(=N)n3C)cc1 [KEALIININE A]	inactive	50%	–	–	–	–
COc1ccc(Cc2[nH]c(=N)n(C)c2Cc2cc(OC)c(O)c(OC)c2)cc1 [NAAMINE G]	–	10%	20 mm	46%	29%	inactive
